According to ChEMBL document CHEMBL5523716, “Discovery of novel EGFR-PROTACs capable of degradation of multiple EGFR-mutated proteins” (Eur J Med Chem, 2024):
The source made the active and inactive calls. No cut-off for these calls is given here.

Experiments:
A-431 = assay: Antiproliferative activity against human A-431 cells harboring EGFR wild type assessed as inhibition of cell growth incubated for 48 to 72 hrs by CCK-8 assay; type: functional, cell-based
H1975-TM [1] = assay: Antitumor activity against human H1975-TM cells xenografted in BALB/c mouse assessed as downregulation of AKT phosphorylation in tumor at 5 to 20 mg/kg,ip once daily for 14 days by Western blot analysis; type: functional, organism-based; details: dose 5-20 mg/kg, time 14.0 day
[2] = AUC (0 to t) in SPF ICR mouse at 5 mg/kg,ip measured upto 24 hrs by LC-MS/MS analysis; type: ADME, organism-based; details: in vivo
[3] = system: von Hippel-Lindau disease tumor suppressor/Epidermal growth factor receptor (Homo sapiens), P00533+P40337 [L858R,T790M]; assay: PROTAC activity at VHL/EGFR L858R/T790M mutant in human NCI-H1975 cells assessed as downregulation of AKT phosphorylation incubated for 72 hrs by Western blot analysis; type: cell-based
NCI-H1975 [4] = assay: Antiproliferative activity against human NCI-H1975 cells harboring EGFR L858R/T790M double mutant assessed as inhibition of cell growth incubated for 48 to 72 hrs by CCK-8 assay; type: functional, cell-based
[5] = Tmax in SPF ICR mouse at 2 mg/kg,iv measured upto 24 hrs by LC-MS/MS analysis; type: ADME, organism-based; details: in vivo
[6] = system: von Hippel-Lindau disease tumor suppressor/Epidermal growth factor receptor (Homo sapiens), P00533+P40337 [UNDEFINED MUTATION]; assay: PROTAC activity at VHL/EGFR Del19 mutant in human HCC827 cells assessed as downregulation of ERK phosphorylation incubated for 72 hrs by Western blot analysis; type: cell-based
NCI-H1975 [7] = assay: Antitumor activity against human NCI-H1975 cells xenografted in BALB/c mouse assessed as tumor growth inhibition at 5 mg/kg,ip once daily for 22 days relative to control; type: functional; details: NCI-H1975, 528 h, time 22 day, read-out: TGI
[8] = system: von Hippel-Lindau disease tumor suppressor/Epidermal growth factor receptor (Homo sapiens), P00533+P40337 [UNDEFINED MUTATION]; assay: PROTAC activity at VHL/EGFR Del19 mutant in human HCC827 cells assessed as induction of EGFR degradation at 100 nM preincubated with MG-132 for 6 hrs followed by compound treatment for 48 hrs by Western blot analysis; type: cell-based
NCI-H1975 [9] = assay: Antitumor activity against human NCI-H1975 cells xenografted in BALB/c mouse assessed as increase in EGFR degradation in tumor at 20 mg/kg,ip once daily for 22 days by Western blot analysis relative to control; type: functional; details: time 22 day
A549 = assay: Antiproliferative activity against human A549 cells harboring EGFR wild type assessed as inhibition of cell growth incubated for 48 to 72 hrs by CCK-8 assay; type: functional, cell-based
[10] = Metabolic stability in dog liver microsomes assessed as intrinsic clearance at 1 uM incubated upto 60 mins in presence of NADPH by LC-MS/MS analysis; type: ADME, Canis lupus familiaris, Microsome; details: read-out: CLH
[11] = system: von Hippel-Lindau disease tumor suppressor/Epidermal growth factor receptor (Homo sapiens), P00533+P40337 [L858R,T790M,C797S]; assay: PROTAC activity at VHL/EGFR L858R/T790M/C797S mutant in human H1975-TM cells assessed as induction of EGFR degradation at 100 nM preincubated with MLN-4924 for 6 hrs followed by compound treatment for 48 hrs by Western blot analysis; type: cell-based
H1975-TM [12] = assay: Antitumor activity against human H1975-TM cells xenografted in BALB/c mouse assessed as increase in EGFR degradation in tumor at 5 to 20 mg/kg,ip once daily for 14 days by Western blot analysis; type: functional, organism-based; details: dose 5-20 mg/kg, time 14.0 day
[13] = MRT (0 to t) in SPF ICR mouse at 2 mg/kg,iv measured upto 24 hrs by LC-MS/MS analysis; type: ADME, organism-based; details: in vivo
[14] = MRT (0 to infinity) in SPF ICR mouse at 5 mg/kg,ip measured upto 24 hrs by LC-MS/MS analysis; type: ADME, organism-based; details: in vivo
[15] = system: von Hippel-Lindau disease tumor suppressor/Epidermal growth factor receptor (Homo sapiens), P00533+P40337 [L858R,T790M]; assay: PROTAC activity at VHL/EGFR L858R/T790M mutant in human NCI-H1975 cells assessed as induction of EGFR degradation at 2 uM by Western blot analysis; type: cell-based; details: TDE = time-dependent effect
[16] = system: von Hippel-Lindau disease tumor suppressor/Epidermal growth factor receptor (Homo sapiens), P00533+P40337 [L858R,T790M]; assay: PROTAC activity at VHL/EGFR L858R/T790M mutant in human NCI-H1975 cells assessed as downregulation of ERK phosphorylation incubated for 72 hrs by Western blot analysis; type: cell-based
[17] = system: von Hippel-Lindau disease tumor suppressor/Epidermal growth factor receptor (Homo sapiens), P00533+P40337 [UNDEFINED MUTATION]; assay: PROTAC activity at VHL/EGFR Del19 mutant in human HCC827 cells assessed as induction of EGFR degradation at 100 nM preincubated with MLN-4924 for 6 hrs followed by compound treatment for 48 hrs by Western blot analysis; type: cell-based
[18] = AUC (0 to t) in SPF ICR mouse at 2 mg/kg,iv measured upto 24 hrs by LC-MS/MS analysis; type: ADME, organism-based; details: in vivo
[19] = system: von Hippel-Lindau disease tumor suppressor/Epidermal growth factor receptor (Homo sapiens), P00533+P40337 [L858R,T790M]; assay: PROTAC activity at VHL/EGFR L858R/T790M mutant in human NCI-H1975 cells assessed as induction of EGFR degradation at 100 nM preincubated with MLN-4924 for 6 hrs followed by compound treatment for 48 hrs by Western blot analysis; type: cell-based
[20] = MRT (0 to infinity) in SPF ICR mouse at 2 mg/kg,iv measured upto 24 hrs by LC-MS/MS analysis; type: ADME, organism-based; details: in vivo
[21] = system: von Hippel-Lindau disease tumor suppressor/Epidermal growth factor receptor (Homo sapiens), P00533+P40337 [L858R,T790M,C797S]; assay: PROTAC activity at VHL/EGFR L858R/T790M/C797S mutant in human H1975-TM cells assessed as downregulation of EGFR phosphorylation incubated for 48 hrs by Western blot analysis; type: cell-based
[22] = Antitumor activity against human H1975-TM cells xenografted in BALB/c mouse assessed as tumor growth inhibition at 20 mg/kg,ip once daily for 14 days relative to control; type: functional; details: 336 h, time 14 day, read-out: TGI
[23] = Toxicity in BALB/c mouse xenografted with human H1975-TM cells assessed as change in body weight at 5 to 20 mg/kg,ip once daily for 14 days; type: organism-based; details: in vivo, 336 h, dose 5-20 mg/kg, time 14 day
[24] = Metabolic stability in monkey liver microsomes assessed as elimination rate constant at 1 uM incubated upto 60 mins in presence of NADPH by LC-MS/MS analysis; type: ADME, Macaca mulatta, Microsome; details: rhesus monkey
[25] = Metabolic stability in rat liver microsomes assessed as half-life at 1 uM incubated upto 60 mins in presence of NADPH by LC-MS/MS analysis; type: ADME, Microsome
[26] = system: von Hippel-Lindau disease tumor suppressor/Epidermal growth factor receptor (Homo sapiens), P00533+P40337 [L858R,T790M,C797S]; assay: PROTAC activity at VHL/EGFR L858R/T790M/C797S mutant in human H1975-TM cells assessed as downregulation of ERK phosphorylation incubated for 48 hrs by Western blot analysis; type: cell-based
[27] = target: Voltage-gated inwardly rectifying potassium channel KCNH2 (Homo sapiens, UniProt Q12809); assay: Inhibition of hERG expressed in CHO cells at 0.3 to 30 uM incubated for 24 to 48 hrs by voltage clamp electrophysiology; type: toxicity, cell-based; details: dose lower 0.3 µM, time lower 24 hrs, dose upper 30 µM, time upper 48 hrs
Voltage-gated inwardly rectifying potassium channel KCNH2, sequence (Q12809 whole entry): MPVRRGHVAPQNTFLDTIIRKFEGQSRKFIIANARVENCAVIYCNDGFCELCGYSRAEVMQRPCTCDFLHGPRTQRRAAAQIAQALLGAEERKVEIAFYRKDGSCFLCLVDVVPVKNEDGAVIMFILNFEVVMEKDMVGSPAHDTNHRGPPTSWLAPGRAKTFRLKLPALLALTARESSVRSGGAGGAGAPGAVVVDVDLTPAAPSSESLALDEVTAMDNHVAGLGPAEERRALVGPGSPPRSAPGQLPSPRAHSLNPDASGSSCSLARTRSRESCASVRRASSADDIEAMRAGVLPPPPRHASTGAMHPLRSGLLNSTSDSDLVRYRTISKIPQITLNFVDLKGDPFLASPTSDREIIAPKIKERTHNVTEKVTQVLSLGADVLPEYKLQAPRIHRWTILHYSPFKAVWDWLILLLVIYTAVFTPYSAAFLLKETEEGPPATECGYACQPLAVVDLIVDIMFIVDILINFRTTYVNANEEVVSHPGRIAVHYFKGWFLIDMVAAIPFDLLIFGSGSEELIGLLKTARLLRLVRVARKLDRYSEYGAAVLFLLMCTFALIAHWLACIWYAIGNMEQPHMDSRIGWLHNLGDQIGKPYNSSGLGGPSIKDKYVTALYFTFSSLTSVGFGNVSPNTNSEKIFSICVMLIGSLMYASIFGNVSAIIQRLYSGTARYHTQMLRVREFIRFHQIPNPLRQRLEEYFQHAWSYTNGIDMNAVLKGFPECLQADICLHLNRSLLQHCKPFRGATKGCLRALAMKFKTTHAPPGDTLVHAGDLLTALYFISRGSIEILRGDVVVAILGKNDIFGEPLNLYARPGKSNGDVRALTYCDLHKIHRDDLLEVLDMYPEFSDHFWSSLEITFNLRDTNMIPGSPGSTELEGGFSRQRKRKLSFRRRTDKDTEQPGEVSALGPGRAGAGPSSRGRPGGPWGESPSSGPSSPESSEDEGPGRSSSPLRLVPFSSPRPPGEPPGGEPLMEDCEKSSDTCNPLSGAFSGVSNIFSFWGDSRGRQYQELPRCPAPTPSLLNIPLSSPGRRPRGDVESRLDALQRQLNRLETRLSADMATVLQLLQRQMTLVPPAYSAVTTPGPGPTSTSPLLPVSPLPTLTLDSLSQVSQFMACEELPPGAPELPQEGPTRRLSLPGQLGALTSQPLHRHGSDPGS

[28] = system: von Hippel-Lindau disease tumor suppressor/Epidermal growth factor receptor (Homo sapiens), P00533+P40337 [UNDEFINED MUTATION]; assay: PROTAC activity at VHL/EGFR Del19 mutant in human HCC827 cells assessed as maximal EGFR degradation at 1.56 to 100 nM incubated for 72 hrs by Western blot analysis relative to control; type: cell-based; details: dose 1.56-100 nM

With `CCN(CC)C/C=C/C(=O)Nc1cc2c(Nc3ccc(F)c(Cl)c3)ncnc2cc1OCc1cn(CCCCCCCC(=O)N[C@H](C(=O)N2C[C@H](O)C[C@H]2C(=O)N[C@H](C)c2ccc(-c3scnc3C)cc2)C(C)(C)C)nn1` as the molecule, how does the IC50 (A-431) read?
The IC50 was over 20 µM.

What about the Activity (H1975-TM [1]) of the same molecule?
The Activity was “Active”.

And the AUC(0-t) at 24 h [2]?
Its AUC(0-t) at 24 h is 2820 ng·h/mL.

And the Activity [3]?
The Activity was “Dose-Dependent Effect”.

What about the IC50 (NCI-H1975 [4]) of the same molecule?
Its IC50 is 0.49 µM.

What about the Tmax [5] of the same molecule?
Its Tmax is 4.8 min.

What about the Activity [6] of the same molecule?
The Activity was “Dose-Dependent Effect”.

What about the inhibition in vivo at 5 mg/kg (NCI-H1975 [7]) of the same molecule?
Its inhibition in vivo at 5 mg/kg is 56%.

What about the Activity [8] of the same molecule?
The Activity was “inactive”.

And the Activity (NCI-H1975 [9])?
The Activity was over 75%.

What about the IC50 (A549) of the same molecule?
The IC50 was over 20 µM.

What about the microsomal CLint at 1 µM [10] of the same molecule?
Its microsomal CLint at 1 µM is 17.8 µL/min/mg.

What about the Activity [11] of the same molecule?
The Activity was “inactive”.

What about the Activity (H1975-TM [12]) of the same molecule?
The Activity was “Active”.

What about the MRT last at 24 h [13] of the same molecule?
Its MRT last at 24 h is 17.4 min.

What about the MRT inf [14] of the same molecule?
Its MRT inf is 173 min.

And the Activity [15]?
Its Activity is “Tde”.

What about the Activity [16] of the same molecule?
Its Activity is “Dose-Dependent Effect”.

And the Activity [17]?
The Activity was “inactive”.

And the AUC(0-t) at 24 h [18]?
The AUC(0-t) at 24 h was 2350 ng·h/mL.

What about the Activity [19] of the same molecule?
Its Activity is “inactive”.

What about the MRT inf [20] of the same molecule?
The MRT inf was 20.4 min.

What about the Activity [21] of the same molecule?
Its Activity is “Dose-Dependent Effect”.

And the inhibition in vivo at 20 mg/kg [22]?
Its inhibition in vivo at 20 mg/kg is 50%.

And the Activity [23]?
The Activity was “Non-Toxic”.

And the k el at 1 h, 1 µM [24]?
Its k el at 1 h, 1 µM is 0.0003 s⁻¹.

What about the half-life at 1 µM [25] of the same molecule?
The half-life at 1 µM was 187 min.

What about the Activity [26] of the same molecule?
Its Activity is “Dose-Dependent Effect”.

And the “inhibition (INH)” value [27]?
Its value is “Not Active”.

And the Emax [28]?
The Emax was 100%.
